Data from patent US4961920A, “Phototherapeutic monovinyl and divinyl ether-linked dimers” (Luminis Pty, Ltd., priority 1988, dated 1990).

System: Lewis lung carcinoma cells
Assay: Photosensitization of tumors: days for Lewis lung carcinoma to regrow to palpable tumor in mice after red-light irradiation
Assay type: in vivo
Conditions: 25-60 mg/kg, i.p. or i.v.; red light 24 h after dosing; groups of 10 C57BL mice; end point 5 out of 10 mice regrow palpable tumor
Text: Lewis lung carcinoma cells (Dr. L. Dent, Flinders Medical Centre), are transplanted into the back of C57BL mice by subcutaneous injection of approximately 10^6 cells per mouse. […] Twenty-four hours later mice are anesthetized, the fur over the tumor shaved, and a 1 cm diameter area over the tumor is irradiated with red light as specified. Mice are palpated daily for recurrence of tumor. The end point is the number of days for 5 out of 10 mice to regrow palpable tumor.
Light can be supplied by a gold metal vapor laser (Quentron Optica Pty. Ltd.) with wavelength 627.8 nm. This laser generates average light intensities of 400 mW coupled to a 400 um quartz fiber and can be positioned to create a 1 cm diameter spot.
Data were recorded as "TC50 "--the first time (in days) after treatment for the tumor to regrow to a palpable stage (as shown in Table 1).

| Substance | TC50 (first time after treatment for the tumor to regrow to a palpable stage) [days] |
| --- | --- |
| Divinyldeuteroporphyrin Ether-linked Dimer [(1) where both R = vinyl] | 7 |
| Monohydroxyethyl Monovinyl Deuteroporphyrin Ether-linked Dimer | 3 |
